Converted amounts (≈) assume the structure as drawn. Bridge positions count the residues as written; N and C are the ends. Side chains are listed from the residue outwards. Peptide text beside a SMILES is read from it. I, II: the chains in the order shown. * marks the point of attachment. Lauroyl = CCCCCCCCCCCC(=O)*; Hexanoyl = CCCCCC(=O)*
Columns and labels:
[1] = test system: MRSA (methicillin-resistant S. aureus) isolates; experiment: microbe, parasite or virus in culture; type: cell-based
Method: (§1) Clinical isolates of CRE, MRSA and VRE were obtained from Lancet Laboratories, Durban, South Africa, with approval BE394/15 from the Biomedical Research Ethical Committee of the University of KwaZulu-Natal. Five reference strains of bacteria, namely Escherichia coli ATCC 25922, Pseudomonas aeruginosa ATCC 27853, Enterococcus faecium ATCC 35667, Staphylococcus aureus ATCC 29213 and Bacillus subtilis ATCC 6051 were supplied by the American Type Culture Collection (ATCC).
(§2) MIC values were determined by the broth microdilution method and the significance of the values obtained was interpreted following the guidelines of the Clinical and Laboratory Standards for Antimicrobial Susceptibility Testing.. The effect of human serum on the antimicrobial effect of the molecules tested was determined in a similar way to the MIC method used above in a solution of 50% human serum plus Mueller–Hinton broth.

B. subtilis ATCC 6051 = experiment: microbe, parasite or virus in culture; type: cell-based, Bacillus subtilis; conditions: ATCC 6051
Method: as §1, §2

E. coli ATCC 25822 = experiment: microbe, parasite or virus in culture; type: cell-based, Escherichia coli; conditions: ATCC 25822
Method: as §1, §2

S. aureus ATCC 29213 = experiment: microbe, parasite or virus in culture; type: cell-based, Staphylococcus aureus; conditions: ATCC 29213
Method: as §1, §2

P. aeruginosa ATCC 27853 = experiment: microbe, parasite or virus in culture; type: cell-based, Pseudomonas aeruginosa; conditions: ATCC 27853
Method: as §1, §2

E. faecium ATCC 35667 = experiment: microbe, parasite or virus in culture; type: cell-based, Enterococcus faecium; conditions: ATCC 35667
Method: as §1, §2

MTT cytotoxicity assay = type: cell-based, human; conditions: human, HepG2 cells, HepG2, 24 h exposure
Method: (§3) Cell viability was evaluated using the colorimetric MTT assay [21]. Human hepatocarcinoma (HepG2) cells and human embryonic kidney 293 (HEK-293) cells used in the drug toxicity assays were obtained from Cellonex (Johannesburg, South Africa). Viable HepG2 and HEK293 cells (20,000 cells/well) were seeded into a 96-well microtiter plate (200 µL) and allowed to attach overnight. The cells were exposed to varying concentrations of the peptides for 24 h. After removal of the treatment medium, 20 µL of MTT salt solution (5 mg/mL in 0.1M phosphate buffer saline (PBS)) and 100 µL of complete cell culture medium (CCM) were added to each well. After a 4 h (37 °C) incubation, the MTT salt solution was discarded and 100 μL of dimethyl sulphoxide (DMSO) were added to each well (1 h, 37 °C). The optical density of the solubilized formazan product was measured at 570 nm (reference λ of 690 nm) using a Bio-tek μQuant spectrophotometer (Winooski, VT, USA). […] GraphPad Prism (V5) (La Jolla, CA, USA) was used to obtain the half maximum inhibitory concentration (IC50) for each compound.

in vitro = conditions: human
Method: as §3

VRE, E. faecium isolates = experiment: microbe, parasite or virus in culture; type: cell-based
Method: as §1, §2

[2] = methicillin-resistant ) isolates

Molecule	MBC (B. subtilis ATCC 6051) [µg/mL]	MIC (B. subtilis ATCC 6051) [µg/mL]	MBC (E. coli ATCC 25822) [µg/mL]	MIC (E. coli ATCC 25822) [µg/mL]	MBC (S. aureus ATCC 29213) [µg/mL]	MIC (S. aureus ATCC 29213) [µg/mL]	MBC (P. aeruginosa ATCC 27853) [µg/mL]	MIC (P. aeruginosa ATCC 27853) [µg/mL]	MBC (E. faecium ATCC 35667) [µg/mL]	MIC (E. faecium ATCC 35667) [µg/mL]	also measured
CC(=O)N[C@@H](CCCCN)C(=O)N[C@@H](CC(C)C)C(=O)N[C@@H](CCCCN)C(=O)NCCCC[C@H](NC(=O)[C@H](CCCCN)NC(=O)[C@H](CC(C)C)NC(=O)[C@H](CCCCN)NC(C)=O)C(=O)N[C@@H](CCCCN)C(=O)N[C@@H](CC(C)C)C(=O)N[C@@H](CCCCN)C(=O)NCCCC[C@H](NC(=O)[C@H](CCCCN)NC(=O)[C@H](CC(C)C)NC(=O)[C@H](CCCCN)NC(=O)[C@H](CCCCNC(=O)[C@H](CCCCN)NC(=O)[C@H](CC(C)C)NC(=O)[C@H](CCCCN)NC(C)=O)NC(=O)[C@H](CCCCN)NC(=O)[C@H](CC(C)C)NC(=O)[C@H](CCCCN)NC(C)=O)C(=O)N[C@@H](CC(C)C)C(=O)N[C@@H](CC(C)C)C(=O)N[C@@H](CCCCN)C(=O)N[C@@H](CC(C)C)C(=O)N[C@@H](CC(C)C)C(N)=O [Ac-G2KLK-L2KL2, (Ac-KLK)4(KKLK)2KLLKLL-NH2] (I: Ac-KLKK([Lys-Leu-Lys-Ac])KLKKLLKLL-NH2 / II: Ac-KLKK([Lys-Leu-Lys-Ac])KLK; amide I:8-II:C)	16 (≈ 4.75 µM)	8 to 16	16 (≈ 4.75 µM)	8 to 16	128 (≈ 38 µM)	64 (≈ 19 µM)	16 (≈ 4.75 µM)	8 to 16	128 (≈ 38 µM)	64 (≈ 19 µM)	MIC [1, 2]: 128 µg/mL (≈ 38 µM)
CC1(C)S[C@@H]2[C@H](NC(=O)[C@H](N)c3ccccc3)C(=O)N2[C@H]1C(=O)O [Amp, reference compound]											MIC ([1]; MRSA isolate 440260): >512 µg/mL; MIC ([1]; MRSA isolate B11970): >512 µg/mL; MIC ([1]; MRSA isolate B13178): >512 µg/mL; MIC ([1]; MRSA isolate P10747): >512 µg/mL; MIC ([1]; MRSA isolate P10781): >512 µg/mL; MIC ([1]; MRSA isolate P11520): 512 µg/mL (≈ 1470 µM); MIC ([1]; MRSA isolate S18155): >512 µg/mL; MIC ([1]; MRSA isolate S18970): >512 µg/mL; MIC ([1]; MRSA isolate S37938): >512 µg/mL; MIC ([1]; MRSA isolate T5683): >512 µg/mL
CCCCCCCCCCCC(=O)N[C@@H](CCCCN)C(=O)N[C@@H](CC(C)C)C(=O)N[C@@H](CCCCN)C(=O)NCCCC[C@H](NC(=O)[C@H](CCCCN)NC(=O)[C@H](CC(C)C)NC(=O)[C@H](CCCCN)NC(=O)CCCCCCCCCCC)C(=O)N[C@@H](CCCCN)C(=O)N[C@@H](CC(C)C)C(=O)N[C@@H](CCCCN)C(=O)NCCCC[C@H](NC(=O)[C@H](CCCCN)NC(=O)[C@H](CC(C)C)NC(=O)[C@H](CCCCN)NC(=O)[C@H](CCCCNC(=O)[C@H](CCCCN)NC(=O)[C@H](CC(C)C)NC(=O)[C@H](CCCCN)NC(=O)CCCCCCCCCCC)NC(=O)[C@H](CCCCN)NC(=O)[C@H](CC(C)C)NC(=O)[C@H](CCCCN)NC(=O)CCCCCCCCCCC)C(=O)N[C@@H](CC(C)C)C(=O)N[C@@H](CC(C)C)C(=O)N[C@@H](CCCCN)C(=O)N[C@@H](CC(C)C)C(=O)N[C@@H](CC(C)C)C(N)=O [Dd-G2KLK-L2KL2, (Dd-KLK)4(KKLK)2KLLKLL-NH2] (I: Lauroyl-KLKK([Lys-Leu-Lys-Lauroyl])KLKKLLKLL-NH2 / II: Lauroyl-KLKK([Lys-Leu-Lys-Lauroyl])KLK; amide I:8-II:C; N-terminus assumed)		>128		>128		>128		>128		>128	
CC(C)C[C@H](NC(=O)[C@H](CC(C)C)NC(=O)[C@H](CCCNC(=N)N)NC(=O)[C@H](CC(C)C)NC(=O)[C@H](CC(C)C)NC(=O)[C@H](CCCCNC(=O)[C@H](CCCNC(=N)N)NC(=O)[C@H](CC(C)C)NC(=O)[C@@H](N)CCCNC(=N)N)NC(=O)[C@H](CCCNC(=N)N)NC(=O)[C@H](CC(C)C)NC(=O)[C@@H](N)CCCNC(=N)N)C(N)=O [G1RLR-L2RL2, (RLR)2KLLRLL-NH2] (H-RLRK([Arg-Leu-Arg])LLRLL-NH2)	32 (≈ 19.9 µM)	32 (≈ 19.9 µM)	8 (≈ 4.98 µM)	8 (≈ 4.98 µM)	16 (≈ 9.97 µM)	16 (≈ 9.97 µM)	16 (≈ 9.97 µM)	16 (≈ 9.97 µM)	4 (≈ 2.49 µM)	4 (≈ 2.49 µM)	IC50 at 24 h (MTT cytotoxicity assay): 328 µg/mL (≈ 204 µM); IC50 at 24 h (in vitro): 153 µg/mL (≈ 95.3 µM)
CCCCCC(=O)N[C@@H](CCCCN)C(=O)N[C@@H](CC(C)C)C(=O)N[C@@H](CCCCN)C(=O)NCCCC[C@H](NC(=O)[C@H](CCCCN)NC(=O)[C@H](CC(C)C)NC(=O)[C@H](CCCCN)NC(=O)CCCCC)C(=O)N[C@@H](CCCCN)C(=O)N[C@@H](CC(C)C)C(=O)N[C@@H](CCCCN)C(=O)NCCCC[C@H](NC(=O)[C@H](CCCCN)NC(=O)[C@H](CC(C)C)NC(=O)[C@H](CCCCN)NC(=O)[C@H](CCCCNC(=O)[C@H](CCCCN)NC(=O)[C@H](CC(C)C)NC(=O)[C@H](CCCCN)NC(=O)CCCCC)NC(=O)[C@H](CCCCN)NC(=O)[C@H](CC(C)C)NC(=O)[C@H](CCCCN)NC(=O)CCCCC)C(=O)N[C@@H](CC(C)C)C(=O)N[C@@H](CC(C)C)C(=O)N[C@@H](CCCCN)C(=O)N[C@@H](CC(C)C)C(=O)N[C@@H](CC(C)C)C(N)=O [Hx-G2KLK-L2KL2, (Hx-KLK)4(KKLK)2KLLKLL-NH2] (I: Hexanoyl-KLKK([Lys-Leu-Lys-Hexanoyl])KLKKLLKLL-NH2 / II: Hexanoyl-KLKK([Lys-Leu-Lys-Hexanoyl])KLK; amide I:8-II:C; N-terminus assumed)	128 (≈ 35.6 µM)	64 (≈ 17.8 µM)	64 (≈ 17.8 µM)	64 (≈ 17.8 µM)	128 (≈ 35.6 µM)	128 (≈ 35.6 µM)	64 (≈ 17.8 µM)	64 (≈ 17.8 µM)	64 (≈ 17.8 µM)	32 (≈ 8.91 µM)	MIC [1, 2]: 64 µg/mL (≈ 17.8 µM)
CN[C@H](CC(C)C)C(=O)N[C@H]1C(=O)N[C@@H](CC(N)=O)C(=O)N[C@H]2C(=O)N[C@H]3C(=O)N[C@H](C(=O)N[C@H](C(=O)O)c4cc(O)cc(O)c4-c4cc3ccc4O)[C@H](O)c3ccc(c(Cl)c3)Oc3cc2cc(c3O[C@@H]2O[C@H](CO)[C@@H](O)[C@H](O)[C@H]2O[C@H]2C[C@](C)(N)[C@H](O)[C@H](C)O2)Oc2ccc(cc2Cl)[C@H]1O [Van, vancomycin, reference compound]											MIC (VRE, E. faecium isolates; Enterococcus faecium): > 128 µg/mL; MIC (VRE, E. faecium isolates; Enterococcus faecium, VRE): > 128 µg/mL; MIC (VRE, E. faecium isolates; VRE E. faecium isolate 938072607): >128 µg/mL; MIC (VRE, E. faecium isolates; VRE E. faecium isolate 938600912): >128 µg/mL; MIC (VRE, E. faecium isolates; VRE E. faecium isolate 938636470): >128 µg/mL; MIC (VRE, E. faecium isolates; VRE E. faecium isolate 938666613): >128 µg/mL; MIC (VRE, E. faecium isolates; VRE E. faecium isolate 945530665): >128 µg/mL; MIC (VRE, E. faecium isolates; VRE E. faecium isolate 951208931): >128 µg/mL; MIC (VRE, E. faecium isolates; VRE E. faecium isolate 951234856): >128 µg/mL; MIC (VRE, E. faecium isolates; VRE E. faecium isolate 951245262): >128 µg/mL; MIC ([1]; MRSA isolate B11970): 1 µg/mL (≈ 0.69 µM); MIC ([1]; MRSA isolate B13178): 1 µg/mL (≈ 0.69 µM); MIC ([1]; MRSA isolate P10747): 1 µg/mL (≈ 0.69 µM); MIC ([1]; MRSA isolate P10781): 1 µg/mL (≈ 0.69 µM); MIC ([1]; MRSA isolate P11520): 1 µg/mL (≈ 0.69 µM); MIC ([1]; MRSA isolate S18155): 1 µg/mL (≈ 0.69 µM); MIC ([1]; MRSA isolate S37938): 1 µg/mL (≈ 0.69 µM); MIC ([1]; MRSA isolate T5683): 1 µg/mL (≈ 0.69 µM); MIC ([1]; Staphylococcus aureus): 1 µg/mL (≈ 0.69 µM); MIC ([1]; Staphylococcus aureus, MRSA): 1 µg/mL (≈ 0.69 µM)
I: H-KLKK([Lys-Leu-Lys])KLKKKLKKLLKLL-NH2 / II: H-KLKK([Lys-Leu-Lys])KLKKKLK / III: H-KLKK([Lys-Leu-Lys])KLK / IV: H-KLKK([Lys-Leu-Lys])KLK (amide I:8-IV:C, I:12-II:C, II:8-III:C) [G3KLK-L2KL2, (KLK)8(KKLK)4(KKLK)2KLLKLL-NH2]	8	4 to 8	32	32	16	16	16	16	64	64	IC50 at 24 h (MTT cytotoxicity assay): 25.7 µg/mL; IC50 at 24 h (in vitro): 53.9 µg/mL

From PMC8228121, “Super-Cationic Peptide Dendrimers—Synthesis and Evaluation as Antimicrobial Agents” (Antibiotics, 2021)
